# Laboratory results reported in patent publication US20070105215A1, “METHOD OF CULTURING STEM CELLS USING ABC TRANSPORTERS” (SAMSUNG ELECTRONICS CO., LTD., priority 2005, published 2007).
# Like-named read-outs stand apart in the source and are kept apart here.
# How the values were obtained:
# [1] = Coculture of A549 and K562 cells treated with Mitoxantrone, viability of K562 cells; type: cell-based; conditions: human, K562 cells cocultured with A549 cells, K562 coculture with A549, Mitoxantrone 0.4 M
# [2] = Coculture of A549 and K562 cells treated with Mitoxantrone, viability of A549 cells; type: cell-based; conditions: human, A549 cells cocultured with K562 cells, A549 co-cultured with K562, Mitoxantrone 0.4 M
# [3] = tested on: A549 (human lug carcinoma cell ATCC no.CCL-185), having ABC transporters of the ABCG2 family
# [4] = Cell activity/viability of K562 cells treated with Mitoxantrone (Sulforhodamine B kit), single culture; type: cell-based; conditions: human, K562 cells (no ABC transporter); K562 single culture, Mitoxantrone 0.4 M, incubated for 96 hours
# Description: (§1) This was performed in the same manner as in Example 1, except that K562 (chronic myelogenous leukemia) cells having no ABC transporter were incubated in place of the A549 cells.
# (§2) This was performed in the same manner as in Example 1, except that K562 cells having no ABC transporter were used in place of the A549 cells.
# [5] = tested on: K562 (chronic myelogenous leukemia) cells having no ABC transporter; test: as above; type: cell-based
# Description: as §1, §2
compound,measurement,setting,value
O=C1c2c(O)ccc(O)c2C(=O)c2c(NCCNCCO)ccc(NCCNCCO)c21 [Mitoxantrone],"viability at 96 h, 0.4 M",[1],17%
same,"viability at 96 h, 0.4 M",[2],92%
same,cell activity,"[3]; A549, Mitoxantrone concentration of 0.4M (FIG. 6)",98%
same,cell activity,"[3]; A549, Mitoxantrone concentration of 1.0M (FIG. 6)",86%
same,cell activity,"[3]; A549, Mitoxantrone concentration of 2.6 (FIG. 6)",68%
same,"viability at 96 h, 0.4 M",[4],28%
same,cell activity,"[5]; K562, Mitoxantrone concentration of 0.1M (FIG. 6)",about 60%
same,cell activity,"[5]; K562, Mitoxantrone concentration of 0.2M (FIG. 6)",almost zero
